Legend:
HepG2 cells = HepG2 cells cultured on CYTODEX 3 microcarriers, energy sources; type: cell-based, human; conditions: Homo sapiens, HepG2, 68 h, read-out: Responses of HepG2 Cells Cultured on Microcarriers After 68 hours in Culture and a 4 hour Color Development Period; for activity at 30 µM: Conc. 0.03 mM; for activity at 100 µM: Conc. 0.10 mM; for activity at 330 µM: Conc. 0.33 mM; for activity at 1000 µM: Conc. 1.00 mM; for activity at 3300 µM: Conc. 3.3 mM; for activity at 10000 µM: Conc. 10 mM; for activity at 15000 µM: Conc. 15 mM; for activity at 20000 µM: Conc. 20 mM
Method: In this Example, methods for testing adherent cells cultured in suspension, for their ability to use multiple carbon sources are described. HepG2 cells were cultured as described in Example 30.
HepG2 cells were harvested by trypsinization for 3 minutes in 0.25% trypsin-1 mM EDTA and resuspended in an equal volume of culture medium. A viable cell count was obtained by trypan blue exclusion and the appropriate volume of the cell suspension to have 2.7×10^6 cells/0.1 gm CYTODEX 3 (Sigma C3275) microcarrier beads was determined. Microcarrier beads had been previously prepared by 1) rehydration in calcium-magnesium free (CMF) DPBS for 3 hours, 2) autoclaving for 15 minutes, and 3) washing twice in MEM without serum. The cell suspension was added to the beads in a 50 mL tube, and the volume adjusted to 5 mL. Cells were allowed to attach for 1 hour in an atmosphere of 5% CO2, 90-100% humidity, and 37° C., with resuspension every 15 minutes. The microcarriers were transferred to a 100×15 mm Petri dish in a total volume of 20 mL. Cultures were maintained as stationary cultures until used for assay.
The thixotropic suspending agent, methylcellulose (1500 cps, Sigma M0555), was included in the medium to keep the microcarriers suspended so that they could be accurately pipetted. The methylcellulose was prepared by autoclaving in 20 mL tissue culture water for 30 minutes, then mixing by shaking for 1 hour. The initial concentration of methylcellulose was […]. The methylcellulose was then diluted 1:1 in 2× DME with or without glucose, then supplemented with 10% HI FBS; this yields a methylcellulose concentration of 1.36%. Beads were transferred to a 50 mL tube, allowed to settle and resuspended in DPBS. The washed beads were then resuspended in DME with 10% HI FBS and penicillin-streptomycin but without glucose, L-glutamine, sodium pyruvate, or phenol red. An equal volume of 1.36% methylcellulose was added and mixed by pipetting.
For the assay, 70 μL of DME with 10% HI FBS and penicillin-streptomycin but without glucose, L-glutamine, sodium pyruvate, or phenol red were added to each well, followed by 30 μL of the appropriate dilution of each test energy source. Stocks of 133 mM of each test chemical were prepared in tissue culture grade water, sterile filtered, and dilutions were prepared in a master plate so that, upon dilution into a regular 96-well MICROPLATE a total well volume of 200 μL, the final concentrations would be 0.033 to 20 mM. Negative control wells received 30 μL of tissue culture grade water. One hundred μL of beads were pipetted into each well. For each plate containing energy sources and cells, a second, control plate containing only energy sources was prepared. Plates were incubated at 5% CO2, 90-100% humidity, and 37° C. for 68 hours prior to addition of the MTS/MPMS colorometric reagent (10 μL/well). The color formed in each well 4-8 hours after addition of the colorimetric reagent, was measured with a plate reader at 490 nm with a reference wavelength of 650 nm. OD values from the control plate were subtracted from the OD values obtained with cells prior to normalizing the data to % negative control (cells without added energy source).

ten strains of E. coli = type: cell-based, Escherichia coli; also: key: +: indicates that the organism tested was capable of utilizing the carbon source listed; −: indicates that the organism tested was not capable of utilizing the carbon source listed; indicates weak positive reactions
HL-60 cells = HL-60 cells in PM1 and PM2 plates, MTS/MPMS color, % negative control; type: cell-based, human; conditions: for response of HL-60 cells: in the presence of added pyruvate
[1] = test system: Salmonella typhimurium auxotrophs hisF645 and pyrCΔ73; type: cell-based
E. coli MG1655 [2] = type: cell-based, Escherichia coli
A549 cells [3] = experiment: Substrate utilization by A549 cells at increasing serum, with and without free amino acids; type: cell-based; conditions: varying FCS, presence and absence of free amino acids (FIG. 11)
Method: Briefly, A549 cells were suspended in RPMI-salts+RPMI-vitamins+1× Pen/Strep with or without RPMI-amino acids at 400,000 cells/mL and dispensed in 50 uL to wells containing a testing substrates (e.g., inosine, pyruvic acid, glucose, L-glutamine, L-arginine, etc.) and FCS to achieve the indicated final concentrations. The cells were incubated for 2 days at 37° C. under 5% CO2-95% air (pre-incubation phase), before a redox dye mix was added. The cells were incubated for an additional 5 hr at 37° C. under 5% CO2-95% air (incubation phase), before color development was measured.

E. coli MG1655 [4] = type: cell-based, Escherichia coli; remark: listed apart in the source
[5] = test system: Saccharomyces cerevisiae (BY4741); experiment: Nutrient stimulation in EA MICROPLATE without methionine; type: cell-based; conditions: medium without methionine, 30° C., 2 days
TK-1 cells = TK-1 cells in PM1 and PM2 plates, with or without 0.5 mM sodium pyruvate; type: cell-based, mouse; conditions: in the presence of 0.5 mM sodium pyruvate
Method: In this Example, methods for testing a murine T lymphoma cells (Butcher et al., Eur. J. Immunol., 10:556-561 [1980]), for their ability to use multiple carbon sources are described. The methods used to culture the TK-1 lymphoma cell line were similar to those used to culture HL-60 cells, as described in Example 27.
TK-1 cells were grown in Falcon tissue culture flasks with vented tops. Culture medium was RPMI 1640 medium (Invitrogen 11875) with 4.5 g/L glucose, 2 mM L-glutamine, 1 mM sodium pyruvate, 0.1 mM nonessential amino acids (NEAA), 0.05 mM 2-mercaptoethanol (2ME), 2 g/L sodium bicarbonate, 5 mg/L phenol red, 50 U/mL penicillin, 50 μg/mL streptomycin, and 10% (v/v) heat inactivated fetal bovine serum (HI FBS, Invitrogen 16140). The cells were seeded at 3×10^5/mL, subcultured at 3 days after initiation of culture to 10^6 cells/mL and used 24 hours later. During all incubations, the cells were kept in an atmosphere of 5% CO2, 90-100% humidity, and 37° C.
A viable cell count was obtained by trypan blue exclusion and an appropriate volume of the cell suspension was placed in a polypropylene centrifuge tube. The cells were washed in DPBS and then resuspended to two-thirds the final volume needed in Dulbecco ? s Modified Eagle ? s Medium (DME, Sigma D5030) with the supplements listed in Table 17, as well as 2-ME, sodium pyruvate and NEAA, and including 10% HI FBS, but without glucose, L-glutamine, sodium pyruvate, and phenol red. This medium is termed DME-RTK. An aliquot was counted by trypan blue exclusion and the cell density was adjusted to 1×10^6/mL. Fifty μL of DME-RTK were added to each well of the appropriate number of half area, 96-well plates (PM1 and PM2 MICROPLATE testing plates). The cells were divided into two lots and one lot received a 1/100 dilution of 100 mM sodium pyruvate (final concentration, 0.5 mM). Cells from both lots were plated at a final cell density of 5×10^4/well (50 μL/well). For each plate containing chemicals and cells, a second, control plate containing only chemicals was prepared. Plates were incubated at 5% CO2, 90-100% humidity, and 37° C. for 1 hour prior to addition of the MTS/MPMS colorimetric reagent (5 μL/well). The color formed in each well 24 hours after addition of the colorimetric reagent, was measured with a plate reader at 490 nm with a reference wavelength of 650 nm. OD values from the control plate were subtracted from the OD values obtained with cells prior to normalizing the data to % negative control.

IMR-90 cells = experiment: Testing of IMR-90 cells in PM1a testing plates; type: cell-based; conditions: for cellular morphology (microscopic): approximately 4.5 hours at 37° C.
Method: IMR-90 cells were cultured in DMEM in 150 mm diameter petri dishes to near confluence under suitable conditions (e.g., 5% CO2, at 37° C.). The cells were harvested from 19 petri dishes, using the standard trypsin-EDTA procedure to detach the cells (i.e., 5 minute treatment with trypsin-EDTA), pooled and centrifuged at 1000×g for 5 minutes at 2-8° C., and resuspended in HBSS without phenol red. The cells were again centrifuged and resuspended in 24 ml inoculating fluid (IF-h). The cell density as determined by measurement using a Coulter Counter was about 3,000,000 cells/ml. Two-fold serial dilutions were prepared using prewarmed inoculating fluid, by mixing 12 ml of cell suspension with 12 ml IF-h, to produce six suspensions having 3,000,000 cells/ml (undiluted), 1,500,000 cells/ml, 750,000 cells/ml, 375,000 cells/ml, 187,500 cells/ml, and 93,750 cells/ml. A “no cell” control was also prepared, using 12 ml inoculating fluid. Each of the cell suspensions was then immediately inoculated into a PM1a PHENOTYPE MICROARRAY testing panel (Biolog), with about 100 μl of suspension added per well.
After approximately 4.5 hours of incubation at 37° C. in a CO2 incubator, the PHENOTYPE MICROARRAY testing panels were visually examined. […] The amount of background pink color was somewhat varied, depending upon the cell concentration. At the highest cell densities, there was a light pink color in all of the wells.

A549 cells [6] = experiment: Metabolic profile of A549 cells with 5% or 20% dialyzed or non-dialyzed FCS; type: cell-based; conditions: FCS 5% or 20%, dialyzed or not (FIG. 10)
Method: Briefly, A549 cells were suspended at 400,000 cells/mL in RPMI-salts+RPMI-vitamins+1× Pen/Strep (Penicillin/Streptomycin) without amino acids but containing either 5% or 20% dialyzed or non-dialyzed FCS. Cells were dispensed in 50 uL to wells containing a plurality of testing substrates (glycogen, glucose and pyruvate among others) at final concentrations of 20, 15, 10.5, 2.5 and 1.2 mM of each testing substrate. The cells were incubated for 2 days at 37° C. under 5% CO2-95% air (pre-incubation phase), before a redox dye mix was added. The cells were incubated for an additional 5 hr at 37° C. under 5% CO2-95% air (incubation phase), before color development was measured.

`O=C(O)CC(O)(CC(=O)O)C(=O)O` [Citric acid] was tested, and the activity at 30 µM (HepG2 cells) was 103%, the activity at 100 µM (HepG2 cells) was 111% and the activity at 330 µM (HepG2 cells) was 112%. For the same molecule, the activity at 1000 µM (HepG2 cells) was 116%, the activity at 3300 µM (HepG2 cells) was 131% and the activity at 10000 µM (HepG2 cells) was 46.8%. For the same molecule, the activity at 15000 µM (HepG2 cells) was 31.5%, the activity at 20000 µM (HepG2 cells) was 20.3% and the carbon source utilization (ten strains of E. coli) was “−”. The response in words (HL-60 cells; L-glutamine 13.7 mM (well E1), citric acid 10.4 mM (well F2)) was “inhibitory response”.
For `OC[C@H]1O[C@@H](n2cnc3c(O)ncnc32)[C@H](O)[C@@H]1O` [Inosine], the “growth stimulation (well color)” value [1] was “turned weakly purple”, the “suitability as nitrogen source (growth, purple color)” value (shortened to “suitability as nitrogen source”) (E. coli MG1655 [2]) was “not suitable” and the carbon source utilization (ten strains of E. coli) was “+”. For the same molecule, the “rate of substrate use (dye reduction)” value (A549 cells [3]) was “used more rapidly in the presence of amino acids”.
For `CSCC[C@H](N)C(=O)O` [L-methionine], the “suitability as nitrogen source” value (E. coli MG1655 [2]) was “not suitable”, the “suitability as sulfur source (growth, purple color)” value (E. coli MG1655 [4]) was “positive” and the “stimulation of growth/respiration (pink color)” value [5] was “increased pink color”.
In the case of `O=C1CC[C@@H](C(=O)O)N1` [L-pyroglutamic acid], the “suitability as nitrogen source” value (E. coli MG1655 [2]) is reported as “not suitable”, the “response of TK-1 cells” value (TK-1 cells) is reported as “gained responses” and the “response of HL-60 cells” value (HL-60 cells) is reported as “unable to respond”.
For `CC(=O)C(=O)O` [Pyruvic acid], the “cellular morphology (microscopic)” value (IMR-90 cells) was “the cells looked healthy”, the carbon source utilization (ten strains of E. coli) was “+” and the “rate of substrate use (dye reduction)” value (A549 cells [3]) was “used more rapidly in the absence of amino acids”. For the same molecule, the dye reduction (A549 cells [6]) was “stimulated A549 cell mediated dye reduction”.
For `N[C@@H](CCC(=O)N[C@@H](CS)C(=O)NCC(=O)O)C(=O)O` [glutathione (reduced form)], the “suitability as nitrogen source” value (E. coli MG1655 [2]) was “not suitable”, the “suitability as sulfur source (growth, purple color)” value (E. coli MG1655 [4]) was “positive” and the “stimulation of growth/respiration (pink color)” value [5] was “increased pink color”.
In the case of `Cc1ncc(CO)c(CO)c1O` [pyridoxine], the “stimulation of growth/respiration (pink color)” value [5] is reported as “increased pink color”.
In the case of `OC[C@H]1O[C@H](O)[C@H](O)[C@@H](O)[C@@H]1O` [α-D-glucose], the color of well (IMR-90 cells; 24 hours of incubation) is reported as “distinctly darker clump of red cells”, the “cellular morphology (microscopic)” value (IMR-90 cells) is reported as “the cells looked healthy” and the activity at 30 µM (HepG2 cells) is reported as 96.3%. The activity at 100 µM (HepG2 cells) was 112%, the activity at 330 µM (HepG2 cells) was 126% and the activity at 1000 µM (HepG2 cells) was 122%. The activity at 3300 µM (HepG2 cells) was 132%, the activity at 10000 µM (HepG2 cells) was 110% and the activity at 15000 µM (HepG2 cells) was 84%. For the same molecule, the activity at 20000 µM (HepG2 cells) was 50.3%, the carbon source utilization (ten strains of E. coli) was “+” and the dye reduction (A549 cells [6]) was “stimulated A549 cell mediated dye reduction”.
For `NCCCC(=O)O` [γ-aminobutyric acid], the “response of TK-1 cells” value (TK-1 cells) was “gained responses” and the “response of HL-60 cells” value (HL-60 cells) was “unable to respond”.
glycogen was tested, and the dye reduction (A549 cells [6]) was “stimulated A549 cell mediated dye reduction” and the “response of TK-1 cells” value (TK-1 cells) was “lost responses”.
